Assay [1] has as its system Escherichia coli. The experiment in a line: Inhibition of protein synthesis in Escherichia coli S30 extracts by coupled transcription-translation assay. Type of assay: functional. As to conditions: Escherichia coli.
The test system of assay [2] is Escherichia coli. Briefly: microbe, parasite or virus in culture. The following applies: ATCC 25922.
Description: Antibacterial activity against Escherichia coli ATCC 25922

pIC50: −log10 of the molar value. ≈ marks a conversion by molar mass, not a printed value.

In turn, `N[C@@H]1C[C@H](N)CN(c2nc(Nc3cccc(NC(=O)c4cccc(O)c4O)c3)nc(N3C[C@H](N)C[C@H](N)C3)n2)C1` showed a pIC50 in assay [1] of 5.40. For the same molecule, the MIC in assay [2] stood at 8 µg/mL (≈ 14.6 µM). Consider `N[C@@H]1C[C@H](N)CN(c2nc(Nc3ccc(C(=O)Nc4ccc5[nH]cnc5c4)c(O)c3)nc(N3C[C@H](N)C[C@H](N)C3)n2)C1`, for which, in assay [1], the pIC50 is 5.40. This molecule also gave an MIC in assay [2] of 8 µg/mL (≈ 13.9 µM). For `N[C@@H]1C[C@H](N)CN(c2nc(Nc3ccc(C(=O)N4CCc5cc(Br)ccc54)c(O)c3)nc(N3C[C@H](N)C[C@H](N)C3)n2)C1`, the pIC50 in assay [1] is 5.05. The same molecule displayed an MIC in assay [2] of 2 µg/mL (≈ 3.13 µM). For the molecule `N[C@@H]1C[C@H](N)CN(c2nc(Nc3ccc4[nH]cnc4c3)nc(N3C[C@H](N)C[C@H](N)C3)n2)C1`, in assay [1], the pIC50 was 4.85. Also, the MIC in assay [2] was 64 µg/mL (≈ 146 µM). Consider `N[C@@H]1C[C@H](N)CN(c2nc(NC3CCNC3)nc(N3C[C@H](N)C[C@H](N)C3)n2)C1` (stereo partly drawn), for which, in assay [1], the pIC50 was 4.44. Same read-out and setting: the figure for `N[C@@H]1C[C@H](N)CN(c2nc(Nc3ccncc3)nc(N3C[C@H](N)C[C@H](N)C3)n2)C1` is 4.49. Regarding `N[C@@H]1C[C@H](N)CN(c2nc(N3C[C@H](N)C[C@H](N)C3)nc(N3CCc4cc(Br)ccc43)n2)C1`, in assay [1], the negative logarithm of the IC50 (pIC50) is 5.30. Besides, the MIC in assay [2] was 16 µg/mL (≈ 31.8 µM).

Take `N[C@@H]1C[C@H](N)CN(c2nc(NO)nc(N3C[C@H](N)C[C@H](N)C3)n2)C1`: the negative logarithm of the IC50 (pIC50) in assay [1] is 4.35. In assay [1], `Nc1nc(N2C[C@H](N)C[C@H](N)C2)nc(N2C[C@H](N)C[C@H](N)C2)n1` had a pIC50 of 4.04. Regarding `N[C@@H]1C[C@H](N)CN(c2nc(Nc3ccc(Cl)c(Cl)c3)nc(N3C[C@H](N)C[C@H](N)C3)n2)C1`, in assay [1], the pIC50 is 5.15. Further, the MIC in assay [2] is 32 µg/mL (≈ 68.5 µM). `N[C@@H]1C[C@H](N)CN(c2nc(N3CCNCC3)nc(N3C[C@H](N)C[C@H](N)C3)n2)C1` gave a pIC50 in assay [1] of 4.64. Turning to `N[C@@H]1C[C@H](N)CN(c2nc(Nc3ccc(-c4ccccc4)cc3)nc(N3C[C@H](N)C[C@H](N)C3)n2)C1`, the pIC50 in assay [1] was 5.05. Besides, the MIC in assay [2] came out at 16 µg/mL (≈ 33.7 µM). Molecule `CCN(CC)c1nc(N2C[C@H](N)C[C@H](N)C2)nc(N2C[C@H](N)C[C@H](N)C2)n1` showed a pIC50 in assay [1] of 3.74. `N[C@@H]1C[C@H](N)CN(c2nc(Nc3ccc(C(=O)Nc4ccc(Cl)c(Cl)c4)c(O)c3)nc(N3C[C@H](N)C[C@H](N)C3)n2)C1` showed a pIC50 in assay [1] of 5.00. The molecule also had an MIC in assay [2] of 2 µg/mL (≈ 3.32 µM).

In the case of `Nc1ccc(Nc2nc(N3C[C@H](N)C[C@H](N)C3)nc(N3C[C@H](N)C[C@H](N)C3)n2)cc1`, in assay [1], the pIC50 is 5.10. In assay [1], `CN(C)c1nc(N2C[C@H](N)C[C@H](N)C2)nc(N2C[C@H](N)C[C@H](N)C2)n1` gave a pIC50 of 3.54. The same measure, in the same setting: the figure for `N[C@@H]1C[C@H](N)CN(c2nc(NC3CCCCC3)nc(N3C[C@H](N)C[C@H](N)C3)n2)C1` is 4.20. The same measure, in the same setting: to `CNc1nc(N2C[C@H](N)C[C@H](N)C2)nc(N2C[C@H](N)C[C@H](N)C2)n1` belongs 4.21. The same measure, in the same setting: the figure for `N[C@@H]1C[C@H](N)CN(c2nc(Nc3ccon3)nc(N3C[C@H](N)C[C@H](N)C3)n2)C1` is 5.05; for `NNc1nc(N2C[C@H](N)C[C@H](N)C2)nc(N2C[C@H](N)C[C@H](N)C2)n1` it is 3.77. `N[C@@H]1C[C@H](N)CN(c2nc(Nc3ccc(NC(=O)c4cccc(O)c4O)cc3)nc(N3C[C@H](N)C[C@H](N)C3)n2)C1` had a pIC50 in assay [1] of 5.30. This molecule also gave an MIC in assay [2] of 8 µg/mL (≈ 14.6 µM). As to `N[C@@H]1C[C@H](N)CN(c2nc(Cl)nc(N3C[C@H](N)C[C@H](N)C3)n2)C1`, in assay [1], the pIC50 was 4.38. Still for that read-out and setting: to `NC[C@H]1O[C@H](O[C@H]2[C@H](O)[C@@H](O[C@H]3O[C@H](CO)[C@@H](O)[C@H](N)[C@H]3O)[C@H](N)C[C@@H]2N)[C@H](O)[C@@H](O)[C@@H]1O` [KANAMYCIN] belongs 6.40; to `CN(C)[C@@H]1C(O)=C(C(N)=O)C(=O)[C@@]2(O)C(O)=C3C(=O)c4c(O)cccc4[C@@](C)(O)[C@H]3C[C@@H]12` [TETRACYCLINE], 5.55.

These data come from ChEMBL document CHEMBL1137289, “Structure-activity relationships of novel antibacterial translation inhibitors: 3,5-diamino-piperidinyl triazines” (Bioorg Med Chem Lett, 2006).
